Assays:
[1] = molecular target: Platelet-derived growth factor receptor beta (Homo sapiens, UniProt P09619); details: at 10 µM
[2] = molecular target: High affinity nerve growth factor receptor (Homo sapiens, UniProt P04629); assay: Selectivity interaction (KinomeScan (DiscoverX)) EUB0001049a NTRK1; details: at 1 µM
[3] = molecular target: T1, Tyrosine-protein kinase ZAP-70 (Homo sapiens, UniProt P43403)
T1 sequence (P43403 whole entry): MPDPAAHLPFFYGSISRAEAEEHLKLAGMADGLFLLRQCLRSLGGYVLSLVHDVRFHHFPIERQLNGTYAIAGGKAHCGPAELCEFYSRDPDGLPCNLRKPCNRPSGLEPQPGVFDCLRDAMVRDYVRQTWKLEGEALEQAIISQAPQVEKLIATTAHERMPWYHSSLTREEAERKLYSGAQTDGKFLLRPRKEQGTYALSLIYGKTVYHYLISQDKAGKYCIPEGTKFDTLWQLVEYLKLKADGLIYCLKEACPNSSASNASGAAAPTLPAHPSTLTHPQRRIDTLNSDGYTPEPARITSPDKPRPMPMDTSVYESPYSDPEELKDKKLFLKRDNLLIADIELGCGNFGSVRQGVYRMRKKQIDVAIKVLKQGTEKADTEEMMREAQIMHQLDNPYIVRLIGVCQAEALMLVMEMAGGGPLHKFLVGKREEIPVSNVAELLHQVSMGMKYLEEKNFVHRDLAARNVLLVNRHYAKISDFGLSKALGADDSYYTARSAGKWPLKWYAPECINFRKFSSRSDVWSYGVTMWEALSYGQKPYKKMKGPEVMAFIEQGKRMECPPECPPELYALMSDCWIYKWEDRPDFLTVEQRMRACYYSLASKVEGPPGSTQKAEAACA

[4] = tested on: Phosphatidylinositol 4,5-bisphosphate 3-kinase catalytic subunit alpha isoform (Homo sapiens), P42336 [E542K]; assay: (§1) Selectivity interaction (KinomeScan (DiscoverX)) EUB0000229b PIK3CA; details: at 1 µM
[5] = tested on: Phosphatidylinositol 4,5-bisphosphate 3-kinase catalytic subunit alpha isoform (Homo sapiens), P42336 [I800L]; assay: as §1; details: at 1 µM
[6] = tested on: Phosphatidylinositol 4,5-bisphosphate 3-kinase catalytic subunit alpha isoform (Homo sapiens), P42336 [H1047Y]; assay: as §1; details: at 1 µM
[7] = tested on: Phosphatidylinositol 4,5-bisphosphate 3-kinase catalytic subunit alpha isoform (Homo sapiens), P42336 [Q546K]; assay: as §1; details: at 1 µM
[8] = tested on: Phosphatidylinositol 4,5-bisphosphate 3-kinase catalytic subunit alpha isoform (Homo sapiens), P42336 [H1047L]; assay: as §1; details: at 1 µM
[9] = tested on: Phosphatidylinositol 4,5-bisphosphate 3-kinase catalytic subunit alpha isoform (Homo sapiens), P42336 [E545K]; assay: as §1; details: at 1 µM
[10] = molecular target: Phosphatidylinositol 4,5-bisphosphate 3-kinase catalytic subunit alpha isoform (Homo sapiens) (UniProt P42336); assay: as §1; details: at 10 µM
[11] = tested on: Phosphatidylinositol 4,5-bisphosphate 3-kinase catalytic subunit alpha isoform (Homo sapiens), P42336 [C420R]; assay: as §1; details: at 1 µM
[12] = tested on: Phosphatidylinositol 4,5-bisphosphate 3-kinase catalytic subunit alpha isoform (Homo sapiens), P42336 [E545A]; assay: as §1; details: at 1 µM
[13] = tested on: Phosphatidylinositol 4,5-bisphosphate 3-kinase catalytic subunit alpha isoform (Homo sapiens), P42336 [M1043I]; assay: as §1; details: at 1 µM
[14] = molecular target: T2, Serine/threonine-protein kinase TBK1 (Homo sapiens) (UniProt Q9UHD2); assay: Selectivity interaction (KinomeScan (DiscoverX)) EUB0001079a TBK1; details: at 1 µM
T2 sequence (whole entry): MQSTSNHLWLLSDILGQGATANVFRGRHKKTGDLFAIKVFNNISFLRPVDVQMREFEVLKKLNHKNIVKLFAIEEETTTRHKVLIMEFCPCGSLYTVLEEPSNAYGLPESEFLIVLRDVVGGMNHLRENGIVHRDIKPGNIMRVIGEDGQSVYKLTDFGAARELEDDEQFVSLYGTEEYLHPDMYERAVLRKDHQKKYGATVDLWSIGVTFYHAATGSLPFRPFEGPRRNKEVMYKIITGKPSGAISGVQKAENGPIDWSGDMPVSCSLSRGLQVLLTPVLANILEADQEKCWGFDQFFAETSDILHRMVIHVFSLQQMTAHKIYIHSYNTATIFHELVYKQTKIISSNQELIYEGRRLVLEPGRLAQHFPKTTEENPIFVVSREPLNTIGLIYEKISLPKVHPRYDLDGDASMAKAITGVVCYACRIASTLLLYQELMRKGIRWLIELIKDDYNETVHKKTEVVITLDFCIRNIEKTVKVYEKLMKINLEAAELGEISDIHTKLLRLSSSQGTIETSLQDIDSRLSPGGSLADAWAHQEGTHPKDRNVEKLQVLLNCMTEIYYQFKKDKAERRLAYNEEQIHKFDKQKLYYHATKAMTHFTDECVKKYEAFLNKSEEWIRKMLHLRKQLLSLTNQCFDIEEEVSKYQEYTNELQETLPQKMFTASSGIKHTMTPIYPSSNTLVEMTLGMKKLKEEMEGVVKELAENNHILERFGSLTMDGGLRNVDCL

[15] = molecular target: Cyclin-dependent kinase 9 (Homo sapiens, UniProt P50750); assay: Selectivity interaction (KinomeScan (DiscoverX)) EUB0000092b CDK9; details: at 10 µM
[16] = molecular target: Rho-associated protein kinase 2 (Homo sapiens, UniProt O75116); assay: Selectivity interaction (KinomeScan (DiscoverX)) EUB0000655a ROCK2; details: at 10 µM
[17] = molecular target: T3, Phosphatidylinositol 5-phosphate 4-kinase type-2 gamma (Homo sapiens) (UniProt Q8TBX8); assay: Selectivity interaction (KinomeScan (DiscoverX)) EUB0000607a PIP4K2C; details: at 10 µM
T3 sequence (whole entry): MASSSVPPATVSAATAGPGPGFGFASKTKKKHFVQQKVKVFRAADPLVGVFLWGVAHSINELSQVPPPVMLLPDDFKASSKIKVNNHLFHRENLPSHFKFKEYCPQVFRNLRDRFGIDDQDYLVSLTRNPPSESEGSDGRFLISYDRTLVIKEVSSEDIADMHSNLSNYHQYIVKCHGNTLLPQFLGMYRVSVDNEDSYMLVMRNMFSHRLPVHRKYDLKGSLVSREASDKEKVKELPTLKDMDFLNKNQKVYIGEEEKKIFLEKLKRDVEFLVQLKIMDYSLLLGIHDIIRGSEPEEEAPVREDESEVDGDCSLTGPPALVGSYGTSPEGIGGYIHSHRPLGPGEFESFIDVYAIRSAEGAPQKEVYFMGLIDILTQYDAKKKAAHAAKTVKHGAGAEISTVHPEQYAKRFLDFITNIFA

Rho-associated protein kinase 2, sequence (O75116 whole entry, looked up): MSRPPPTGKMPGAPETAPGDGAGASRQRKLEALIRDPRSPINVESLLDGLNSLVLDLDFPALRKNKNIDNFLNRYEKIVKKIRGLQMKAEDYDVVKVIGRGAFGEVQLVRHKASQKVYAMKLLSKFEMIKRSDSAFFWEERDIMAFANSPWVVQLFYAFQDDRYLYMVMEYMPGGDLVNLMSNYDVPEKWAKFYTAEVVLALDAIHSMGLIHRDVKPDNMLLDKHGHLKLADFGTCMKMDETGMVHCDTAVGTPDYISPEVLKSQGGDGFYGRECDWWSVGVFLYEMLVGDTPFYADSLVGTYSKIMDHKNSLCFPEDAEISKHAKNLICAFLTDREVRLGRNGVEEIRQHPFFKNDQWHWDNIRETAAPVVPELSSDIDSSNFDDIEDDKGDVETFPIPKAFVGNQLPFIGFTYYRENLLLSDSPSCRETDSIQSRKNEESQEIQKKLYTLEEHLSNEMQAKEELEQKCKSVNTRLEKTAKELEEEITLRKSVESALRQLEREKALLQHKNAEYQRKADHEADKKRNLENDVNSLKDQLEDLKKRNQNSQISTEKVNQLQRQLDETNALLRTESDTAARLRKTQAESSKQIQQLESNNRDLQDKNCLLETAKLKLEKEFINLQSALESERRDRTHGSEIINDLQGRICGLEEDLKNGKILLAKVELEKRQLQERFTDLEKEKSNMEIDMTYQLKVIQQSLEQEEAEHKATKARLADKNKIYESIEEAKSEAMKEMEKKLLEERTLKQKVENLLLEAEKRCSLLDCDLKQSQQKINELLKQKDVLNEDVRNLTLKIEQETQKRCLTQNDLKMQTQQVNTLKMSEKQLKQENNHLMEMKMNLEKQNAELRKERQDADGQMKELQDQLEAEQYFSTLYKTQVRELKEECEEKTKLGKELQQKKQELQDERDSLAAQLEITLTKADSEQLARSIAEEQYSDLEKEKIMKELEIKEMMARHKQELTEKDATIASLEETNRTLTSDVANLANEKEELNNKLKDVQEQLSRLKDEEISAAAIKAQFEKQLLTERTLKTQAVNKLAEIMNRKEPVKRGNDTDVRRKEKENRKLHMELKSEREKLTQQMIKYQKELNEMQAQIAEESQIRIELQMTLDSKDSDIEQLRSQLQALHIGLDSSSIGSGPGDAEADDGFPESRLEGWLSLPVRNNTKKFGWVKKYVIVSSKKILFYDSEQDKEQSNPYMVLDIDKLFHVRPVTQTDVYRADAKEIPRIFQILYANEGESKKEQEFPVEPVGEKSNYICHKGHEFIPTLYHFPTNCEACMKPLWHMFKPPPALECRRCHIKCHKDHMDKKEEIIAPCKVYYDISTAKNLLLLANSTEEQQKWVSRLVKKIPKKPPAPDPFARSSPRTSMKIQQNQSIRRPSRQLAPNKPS
Phosphatidylinositol 4,5-bisphosphate 3-kinase catalytic subunit alpha isoform (Homo sapiens), P42336 [C420R], sequence (P42336 whole entry C420R, canonical isoform): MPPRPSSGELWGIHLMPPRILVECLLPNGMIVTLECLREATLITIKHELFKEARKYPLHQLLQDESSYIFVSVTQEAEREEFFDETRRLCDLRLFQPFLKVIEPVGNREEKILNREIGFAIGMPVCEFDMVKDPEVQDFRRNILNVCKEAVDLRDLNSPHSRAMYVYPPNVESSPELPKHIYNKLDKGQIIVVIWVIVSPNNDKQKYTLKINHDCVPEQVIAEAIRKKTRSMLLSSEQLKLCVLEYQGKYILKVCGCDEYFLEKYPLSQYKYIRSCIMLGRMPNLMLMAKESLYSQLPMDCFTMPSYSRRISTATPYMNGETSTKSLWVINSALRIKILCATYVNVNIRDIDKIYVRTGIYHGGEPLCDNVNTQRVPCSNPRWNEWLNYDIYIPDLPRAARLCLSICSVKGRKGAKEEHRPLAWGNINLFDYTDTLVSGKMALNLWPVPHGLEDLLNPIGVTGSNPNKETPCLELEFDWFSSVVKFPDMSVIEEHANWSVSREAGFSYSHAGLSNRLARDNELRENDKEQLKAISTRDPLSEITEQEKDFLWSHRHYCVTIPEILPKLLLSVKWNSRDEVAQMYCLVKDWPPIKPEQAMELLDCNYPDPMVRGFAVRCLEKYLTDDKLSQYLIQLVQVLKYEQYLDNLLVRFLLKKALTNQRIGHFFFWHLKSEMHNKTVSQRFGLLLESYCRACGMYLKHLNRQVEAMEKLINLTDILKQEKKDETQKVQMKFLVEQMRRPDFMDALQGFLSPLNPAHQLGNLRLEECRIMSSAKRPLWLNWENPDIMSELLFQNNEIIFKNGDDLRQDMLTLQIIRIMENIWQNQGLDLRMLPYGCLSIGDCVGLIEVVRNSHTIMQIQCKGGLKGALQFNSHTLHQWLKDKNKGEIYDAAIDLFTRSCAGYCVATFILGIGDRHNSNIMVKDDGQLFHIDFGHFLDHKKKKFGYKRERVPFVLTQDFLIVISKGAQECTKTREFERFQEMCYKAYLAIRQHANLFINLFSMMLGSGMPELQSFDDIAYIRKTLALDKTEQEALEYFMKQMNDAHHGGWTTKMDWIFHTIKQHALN
Phosphatidylinositol 4,5-bisphosphate 3-kinase catalytic subunit alpha isoform (Homo sapiens), P42336 [E545K], sequence (P42336 whole entry E545K, canonical isoform): as the sequence (P42336 whole entry C420R, canonical isoform) above, with R420C, E545K counted along it
Phosphatidylinositol 4,5-bisphosphate 3-kinase catalytic subunit alpha isoform (Homo sapiens), P42336 [H1047L], sequence (P42336 whole entry H1047L, canonical isoform): as the sequence (P42336 whole entry C420R, canonical isoform) above, with R420C, H1047L counted along it
Cyclin-dependent kinase 9, sequence (P50750 whole entry): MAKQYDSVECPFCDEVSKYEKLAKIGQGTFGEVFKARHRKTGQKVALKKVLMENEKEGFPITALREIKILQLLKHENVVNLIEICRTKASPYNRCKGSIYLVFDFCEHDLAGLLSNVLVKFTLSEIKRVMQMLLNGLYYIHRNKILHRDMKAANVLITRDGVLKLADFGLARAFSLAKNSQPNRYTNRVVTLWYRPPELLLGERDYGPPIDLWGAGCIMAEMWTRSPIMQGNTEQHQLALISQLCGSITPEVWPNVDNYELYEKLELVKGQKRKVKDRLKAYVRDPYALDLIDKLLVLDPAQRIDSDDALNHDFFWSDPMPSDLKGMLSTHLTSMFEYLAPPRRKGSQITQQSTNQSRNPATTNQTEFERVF

Cc1cc([C@@H](C)Nc2ccccc2C(=O)O)c2nc(N3CCOCC3)cc(=O)n2c1 [AZD-6482]
% of control [1]: 100%

COc1cc(Nc2nc(C)cc(-c3cnn4nc(OC)ccc34)n2)cc(C(F)(F)F)c1
% of control [2]: 100%

CCc1cccc(CC)c1NC(=O)c1nn(C)c2c1CCc1cnc(Nc3ccc(C(=O)NC4CCN(C)CC4)cc3OC(F)(F)F)nc1-2
IC50 [3]: > 10 µM

COc1cc(N(C)c2ccnc3ccc(C(F)(F)F)cc23)cc(OC)c1OC
% binding [4]: 90% | % binding [5]: 72% | % binding [6]: 90% | % binding [7]: 81% | % binding [8]: 63% | % binding [9]: 76% | % binding [10]: 100% | % binding [11]: 87% | % binding [12]: 67% | % binding [13]: 87%

Nc1cnc(N2CCc3cc(S(=O)(=O)Nc4c(F)cc(Cl)cc4F)cc(N4CCCC4=O)c32)nc1 [TP-020n]
% of control [14]: 85%

CCC(=O)N1CCN(c2ccc(-n3c(=O)ccc4cnc5ccc(-c6cnc7ccccc7c6)cc5c43)cc2C(F)(F)F)CC1
% of control [15]: 94%

CN(C)CCOc1ccc(-c2nc(-c3ccncc3)c(-c3ccc4c(c3)CC/C4=N\O)[nH]2)cc1
% of control [16]: 47%

CNC(=O)Nc1ccc(-c2nc(N3CC4CCC(C3)O4)c3cnn(C4CCC5(CC4)OCCO5)c3n2)cc1
% of control [17]: 100%
